# Laboratory results taken from patent EP0664129A2, “Epicholesterol for treating dyslipidemia” (PHARMACIA S.p.A., priority 1994, dated 1995).
# Legend:
# [1] = system: Mice; assay: Cholesterol / epicholesterol enriched diets in mice: plasma and liver total cholesterol (enzymatic colorimetric method); format: in vivo, male CD mice; settings: 4 days
# Procedure: (§1) Male Sprague Dawley rats weighing 250 g and male CD mice weighing 22-25 g (Charles River) were housed in rooms maintained at 21±1°C with relative humidity 50-60% and a 12 hours light-dark cycle. After a week of housing, the animals were allocated to the different experimental groups and received one of the following diets: • a) rat or mouse chow diet, containing 0.5% sodium cholate; • b) cholesterol enriched diet, containing 0.5% sodium cholate and 1.5% cholesterol; • c) epicholesterol enriched diet, containing 0.5% sodium cholate and 1.5% epicholesterol; • d) epicholesterol and cholesterol enriched diet containing 0.5% sodium cholate and 1.5% of both sterols. Weight of the animals and food consumption were recorded daily. After overnight fasting, the animals were anesthetized with sodium pentobarbital (50 mg/kg body weight) and exsanguinated from the abdominal aorta. Plasma was obtained by low speed (3000 g for 10 min) centrifugation of whole blood containing Na₂EDTA as anticoagulant. Plasma lipid extracts were prepared according to Bligh E.G., Dyer W.J., Can. J. Bioch. Physiol, 31, 911, 1959. Liver specimens (500 mg) were excised from the lateral liver lobe, washed in ice-cold saline, and immediately placed on dry-ice and stored at -80°C. They were extracted according to the method of Folch J. et al., J. Biol. Chem. , 226, 497, 1957, as modified by Carlson L.A., J. Atheroscler. Res., 3, 334, 1963. Plasma and liver total cholesterol content (i.e. unesterified and esterified cholesterol fractions) were determined by the enzymatic colorimetric method of Allain et al., Clin. Chem., 20, 470, 1974. In this assay epicholesterol is not read.
# [2] = Micellar cholesterol solubilization in vitro; format: physicochemical; settings: for Micellar Cholesterol Content: cholesterol 1 mM
# Procedure: The micellar solubility of cholesterol in vitro was measured by the method of Ikeda I., Tanabe Y. and Sugano M. , J. Nutr. Sci. Vitaminol. 35, 361, 1989. In detail, cholesterol (1 mM) or mixture of cholesterol (1 mM) and epicholesterol (0.5-8 mM) were sonicated for 2 minutes at 37°C in 15 mM NaPO₄ buffer, pH 7.4, containing 0.6 mM egg yolk lecithin, 1 mM oleic acid, 0.5 mM monolein, 6.6 mM Na taurocholate, and 132 mM NaCl. After incubation at 37°C overnight, the solutions were subjected to ultracentrifugation (100,000 g for 60 min at 37°C). Samples of the supernatant were assayed for the cholesterol content.
# [3] = system: Rats; assay: Cholesterol / epicholesterol enriched diets in rats: plasma and liver total cholesterol (enzymatic colorimetric method); format: in vivo, Male Sprague Dawley rats; settings: 4 days
# Procedure: as §1
# [4] = Gas liquid chromatography of unesterified sterols in plasma and liver of mice fed enriched diets; format: in vivo; settings: for Percent Distribution Epicholesterol (unesterified sterol content): 1.5% sterol enriched diet, Mean ± SD, n=3, nd: not detectable
# Procedure: Male Sprague Dawley rats weighing 250 g and male CD mice weighing 22-25 g (Charles River) were housed in rooms maintained at 21±1°C with relative humidity 50-60% and a 12 hours light-dark cycle. After a week of housing, the animals were allocated to the different experimental groups and received one of the following diets: • a) rat or mouse chow diet, containing 0.5% sodium cholate; • b) cholesterol enriched diet, containing 0.5% sodium cholate and 1.5% cholesterol; • c) epicholesterol enriched diet, containing 0.5% sodium cholate and 1.5% epicholesterol; • d) epicholesterol and cholesterol enriched diet containing 0.5% sodium cholate and 1.5% of both sterols. Weight of the animals and food consumption were recorded daily.
# After overnight fasting, the animals were anesthetized with sodium pentobarbital (50 mg/kg body weight) and exsanguinated from the abdominal aorta. Plasma was obtained by low speed (3000 g for 10 min) centrifugation of whole blood containing Na₂EDTA as anticoagulant.
# Plasma lipid extracts were prepared according to Bligh E.G., Dyer W.J., Can. J. Bioch. Physiol, 31, 911, 1959.
# Liver specimens (500 mg) were excised from the lateral liver lobe, washed in ice-cold saline, and immediately placed on dry-ice and stored at -80°C. They were extracted according to the method of Folch J. et al., J. Biol. Chem. , 226, 497, 1957, as modified by Carlson L.A., J. Atheroscler. Res., 3, 334, 1963.
# Lipids extract from plasma and liver were separated by TLC on Silica Gel plates from Merck using petroleum ether 40-70°/diethyl ether/acetic acid (80:20:1) as developing system. Cholesterol, epicholesterol, dihydrocholesterol, and 7-keto-cholesterol as representative of the oxysterol class of sterols migrated with very similar Rf and could be recovered as a single area from the TLC plate. These sterols were eluted from the silica using chloroform and were dried by evaporation under N₂. The samples were redissolved in pyridine and derivatizated adding an equal volume of MBSTFA [N-methyl-N(tert-butyldimethylsilyl)Trifluoroacetamide].
# After 20 minutes at room temperature the samples were analyzed by GLC according to Smith N.B., Lipids, 17, 464, 1982, on a Carlo Erba Mega 3000 gaschromatographer equipped with a flame ionization detector and a 25 m OV1 column (0.2 mm id., film thickness 0.2-0.25). He was used as carrier at 100 Kps. The splitless injection technique was used and 1-2 µl sample were injected. […] The injection and the detector temperatures were respectively 340°C and 350°C. Retention time of cholesterol, epicholesterol, dihydrocholesterol and 7keto-cholesterol were determined by injecting pure sterols.
# [5] = diet with 0.5% sodium cholate and 1.5% of the single sterol
# [6] = diet with 0.5% sodium cholate and 1.5% of the single sterol, listed as epicholesterol
# [7] = diet with 1.5% Cholesterol and 1.5% Epicholesterol together, 0.5% sodium cholate
# [8] = diet with 1.5% Cholesterol and 1.5% Epicholesterol together, 0.5% sodium cholate, listed as epicholesterol
# [9] = diet with 0.5% sodium cholate and 1.5% of the single sterol, mean±spread
# [10] = diet with 0.5% sodium cholate and 1.5% of the single sterol, listed as cholesterol
smiles,measurement,setting,value
"CC(C)CCC[C@@H](C)[C@H]1CC[C@H]2[C@@H]3CC=C4C[C@H](O)CC[C@]4(C)[C@H]3CC[C@]12C [Epicholesterol, cholest-5-en-3α-ol]",CHOLESTEROL CONCENTRATION IN LIVER,[1]; [5],°° 2.58±0.16 (n=10) mg/g fresh tissue
same,CHOLESTEROL CONCENTRATION IN PLASMA,[1]; [5],* 93±15 °°(n=10) mg/dl
same,CHOLESTEROL CONCENTRATION IN LIVER,[1]; [6],did not brought about any significant change
same,CHOLESTEROL CONCENTRATION IN PLASMA,[1]; [6],did not brought about any significant change
same,CHOLESTEROL CONCENTRATION IN LIVER,[1]; [7],** 9.54±1.49 °° (n=10) □□ mg/g fresh tissue
same,CHOLESTEROL CONCENTRATION IN PLASMA,[1]; [7],**115±26 □(n=10) mg/dl
same,CHOLESTEROL CONCENTRATION IN LIVER,[1]; [8],significant decrease
same,CHOLESTEROL CONCENTRATION IN PLASMA,[1]; [8],significant decrease
same,Micellar Cholesterol Content,[2]; Cholesterol-to-Epicholesterol Ratio 0.125,0.18 ± 0.02 mM
same,Micellar Cholesterol Content,[2]; Cholesterol-to-Epicholesterol Ratio 0.25,0.22 ± 0.03 mM
same,Micellar Cholesterol Content,[2]; Cholesterol-to-Epicholesterol Ratio 0.5,0.23 ± 0.06 mM
same,Micellar Cholesterol Content,[2]; Cholesterol-to-Epicholesterol Ratio 1,0.42 ± 0.03 mM
same,Micellar Cholesterol Content,"[2]; Cholesterol-to-Epicholesterol Ratio 2, control (cholesterol only) 1.00 ± 0.05",0.71 ± 0.05 mM
same,decrease of cholesterol micellar solubility,[2]; cholesterol and epicholesterol in a 1 to 0.5 molar ratio,more than 30%
same,cholesterol micellar solubility,"[2]; epicholesterol and cholesterol mixed together, all the concentrations tested of epicholesterol (0.5-8 mM)",significantly decreased
same,CHOLESTEROL CONCENTRATION IN LIVER,[3]; [5],°° 2.59±0.38 (n=3) mg/g fresh tissue
same,CHOLESTEROL CONCENTRATION IN LIVER,[3]; [6],did not brought about any significant change
same,CHOLESTEROL CONCENTRATION IN PLASMA,[3]; [9],°° 64±18 (n=3) mg/dl
same,CHOLESTEROL CONCENTRATION IN PLASMA,"[3]; diet with 0.5% sodium cholate and 1.5% of the single sterol, mean±spread, listed as epicholesterol",did not brought about any significant change
same,CHOLESTEROL CONCENTRATION IN LIVER,[3]; [7],** 5.71±0.95 °° (n=3) □ mg/g fresh tissue
same,CHOLESTEROL CONCENTRATION IN PLASMA,[3]; [7],**103±9 ° (n=3) □ mg/dl
same,CHOLESTEROL CONCENTRATION IN LIVER,[3]; [8],significant decrease
same,CHOLESTEROL CONCENTRATION IN PLASMA,[3]; [8],significant decrease
same,absorption by the intestine,[4]; conclusion from plasma and liver sterol content of mice fed 1.5% epicholesterol diet,only minimally absorbed
same,Percent Distribution Epicholesterol (unesterified sterol content),[4]; mice liver,1.0±0.4%
same,Percent Distribution Epicholesterol (unesterified sterol content),"[4]; mice liver, listed as epicholesterol",only trace amount
same,Percent Distribution Epicholesterol (unesterified sterol content),[4]; mice plasma,2.6±1.5%
same,Percent Distribution Epicholesterol (unesterified sterol content),"[4]; mice plasma, listed as epicholesterol",only trace amount
CC(C)CCC[C@@H](C)[C@H]1CC[C@H]2[C@@H]3CC=C4C[C@@H](O)CC[C@]4(C)[C@H]3CC[C@]12C [Cholesterol],CHOLESTEROL CONCENTRATION IN LIVER,[1]; [5],**18.70±2.60 (n=10) mg/g fresh tissue
same,CHOLESTEROL CONCENTRATION IN PLASMA,[1]; [5],**152±19 (n=10) mg/dl
same,CHOLESTEROL CONCENTRATION IN LIVER,[1]; [10],at least a fourfold increase
same,CHOLESTEROL CONCENTRATION IN PLASMA,[1]; [10],rose significantly
same,CHOLESTEROL CONCENTRATION IN LIVER,[3]; [5],**11.28±1.48 (n=7) mg/g fresh tissue
same,CHOLESTEROL CONCENTRATION IN LIVER,[3]; [10],at least a fourfold increase
same,CHOLESTEROL CONCENTRATION IN PLASMA,[3]; [9],**178±45 (n=7) mg/dl
same,CHOLESTEROL CONCENTRATION IN PLASMA,"[3]; diet with 0.5% sodium cholate and 1.5% of the single sterol, mean±spread, listed as cholesterol",rose significantly
